Experimental data published in patent US20070293399A1, “SUBSTITUTED DIAMINO-1,3,5-TRIAZINES, PROCESSES FOR THEIR PREPARATION AND THEIR USE AS HERBICIDES AND CROP GROWTH REGULATORS” (Bayer CropScience AG, priority 2006, published 2007).

Columns and labels:
[1] = system: Stellaria media, Lolium multiflorum, Amaranthus retroflexus, Sinapis alba, Avena sativa and Setaria viridis; assay: Pre-emergence herbicidal action (greenhouse pot test); format: in vivo; conditions: application rate of 1 kg or less of active substance per hectare; scored visually after 3 to 4 weeks in comparison to untreated controls
Description: Seeds or rhizome pieces of mono- and dicotyledonous weed plants were placed in sandy loam in plastic pots and covered with soil. The inventive compounds, which have been formulated in the form of wettable powders or emulsion concentrates, were then applied to the surface of the covering soil as an aqueous suspension or emulsion in different dosages with an application rate of from 600 to 800 l/ha of water (converted).

[2] = system: Sinapis alba, Echinochloa crus-galli, Lolium multiflorum, Stellaria media, Cyperus iria, Amaranthus retroflexus, Setaria viridis, Avena sativa, Lamium …; assay: Post-emergence herbicidal action (greenhouse pot test); format: in vivo; conditions: application rate of 1 kg and less of active substance per hectare; treated at three-leaf stage; scored visually after approx. 3 to 4 weeks in comparison to untreated controls
Experimental: Seeds or rhizome pieces of mono- and dicotyledonous weeds were placed in sandy loam in plastic pots, covered with soil and grown in a greenhouse under good growth conditions. Three weeks after the sowing, the test plants were treated at the three-leaf stage. The inventive compounds formulated as spray powders or as emulsion concentrates were sprayed onto the green plant parts in various dosages with an application rate of from 600 to 800 l/ha of water (converted). After the test plants had been left to stand in the greenhouse under optimal growth conditions for approx. 3 to 4 weeks, the action of the preparations was scored visually in comparison to untreated controls. The inventive compositions also had good post-emergence herbicidal activity against a wide spectrum of economically important gramineous and broadleaf weeds.

`CC(=O)Nc1ncnc(NC2c3cc(F)ccc3CC2C)n1` (racemic) [Compound 1.1] was tested, and the “herbicidal action against harmful plants in the pre-emergence method” value (shortened to “herbicidal action … in the pre-emergence method”) [1] was “very good herbicidal action” and the “herbicidal action against harmful plants in the post-emergence method” value (“herbicidal action … in the post-emergence method” for short) [2] was “very good herbicidal action”.
In the case of `CC1Cc2ccc(F)cc2C1Nc1ncnc(NC(=O)C(Cl)(Cl)Cl)n1` (racemic) [Compound 1.2], the “herbicidal action … in the pre-emergence method” value [1] is reported as “very good herbicidal action” and the “herbicidal action … in the post-emergence method” value [2] is reported as “very good herbicidal action”.
With `CC1Cc2ccc(F)cc2C1Nc1ncnc(NC(=O)C(F)(F)F)n1` (racemic) [Compound 1.3] the “herbicidal action … in the pre-emergence method” value [1] was “very good herbicidal action” and the “herbicidal action … in the post-emergence method” value [2] was “very good herbicidal action”.
For `CC1Cc2ccc(F)cc2C1Nc1ncnc(NC(=O)CCl)n1` (racemic) [Compound 1.4], the “herbicidal action … in the pre-emergence method” value [1] was “very good herbicidal action” and the “herbicidal action … in the post-emergence method” value [2] was “very good herbicidal action”.
`CCC(=O)Nc1ncnc(NC2c3cc(F)ccc3CC2C)n1` (racemic) [Compound 1.5] was tested, and the “herbicidal action … in the pre-emergence method” value [1] was “very good herbicidal action” and the “herbicidal action … in the post-emergence method” value [2] was “very good herbicidal action”.
`COC(=O)Nc1nc(CF)nc(NC2c3cc(F)ccc3CC2C)n1` (racemic) [Compound 1.11] was tested, and the “herbicidal action … in the pre-emergence method” value [1] was “very good herbicidal action” and the “herbicidal action … in the post-emergence method” value [2] was “very good herbicidal action”.
With `CCC(=O)Nc1nc(CF)nc(NC2c3cc(F)ccc3CC2C)n1` (racemic) [Compound 1.12] the “herbicidal action … in the pre-emergence method” value [1] was “very good herbicidal action” and the “herbicidal action … in the post-emergence method” value [2] was “very good herbicidal action”.
For `CC1Cc2ccc(F)cc2C1Nc1nc(CF)nc(NC(=O)C(F)(F)F)n1` (racemic) [Compound 1.13], the “herbicidal action … in the pre-emergence method” value [1] was “very good herbicidal action” and the “herbicidal action … in the post-emergence method” value [2] was “very good herbicidal action”.
With `CC1Cc2ccc(F)cc2C1Nc1nc(CF)nc(NC(=O)C(Cl)(Cl)Cl)n1` (racemic) [Compound 1.14] the “herbicidal action … in the pre-emergence method” value [1] was “very good herbicidal action” and the “herbicidal action … in the post-emergence method” value [2] was “very good herbicidal action”.
In the case of `CC(=O)Nc1nc(NC2CCOc3c(C)cc(F)cc32)nc(C2CC2)n1` (racemic) [Compound 1.31], the “herbicidal action … in the pre-emergence method” value [1] is reported as “very good herbicidal action” and the “herbicidal action … in the post-emergence method” value [2] is reported as “very good herbicidal action”.
For `COCc1nc(NC(C)=O)nc(NC2CCc3ccccc32)n1` (racemic) [Compound 1.32], the “herbicidal action … in the pre-emergence method” value [1] was “very good herbicidal action” and the “herbicidal action … in the post-emergence method” value [2] was “very good herbicidal action”.
For `CC(=O)Nc1nc(NC2CCOc3c(C)cc(F)cc32)nc(C(C)Cc2ccc(F)cc2)n1` (racemic) [Compound 1.33], the “herbicidal action … in the pre-emergence method” value [1] was “very good herbicidal action” and the “herbicidal action … in the post-emergence method” value [2] was “very good herbicidal action”.
With `CCC(=O)Nc1nc(NC2CCOc3c(C)cc(F)cc32)nc(C(C)Cc2ccc(F)cc2)n1` (racemic) [Compound 1.38] the “herbicidal action … in the pre-emergence method” value [1] was “very good herbicidal action” and the “herbicidal action … in the post-emergence method” value [2] was “very good herbicidal action”.
In the case of `COCc1nc(NC(C)=O)nc(NC2CCCc3c(C)cc(C)cc32)n1` (racemic) [Compound 1.39], the “herbicidal action … in the pre-emergence method” value [1] is reported as “very good herbicidal action” and the “herbicidal action … in the post-emergence method” value [2] is reported as “very good herbicidal action”.
In the case of `CC(=O)Nc1ncnc(NC2c3cccc(C)c3CC2C)n1` (racemic) [Compound 1.46], the “herbicidal action … in the pre-emergence method” value [1] is reported as “very good herbicidal action” and the “herbicidal action … in the post-emergence method” value [2] is reported as “very good herbicidal action”.
With `CC(=O)Nc1ncnc(NC2CCOc3ccc(C)cc32)n1` (racemic) [Compound 1.47] the “herbicidal action … in the pre-emergence method” value [1] was “very good herbicidal action” and the “herbicidal action … in the post-emergence method” value [2] was “very good herbicidal action”.
With `Cc1ccc2c(c1)C(Nc1nc(NC(=O)C(Cl)(Cl)Cl)nc(C(C)F)n1)CCO2` (racemic) [Compound 1.51] the “herbicidal action … in the pre-emergence method” value [1] was “very good herbicidal action” and the “herbicidal action … in the post-emergence method” value [2] was “very good herbicidal action”.
For `Cc1ccc2c(c1C)OCCC2Nc1nc(NC(=O)C2CC2)nc(C2CC2)n1` (racemic) [Compound 1.70], the “herbicidal action … in the pre-emergence method” value [1] was “very good herbicidal action” and the “herbicidal action … in the post-emergence method” value [2] was “very good herbicidal action”.
With `CC(=O)Nc1ncnc(N[C@@H]2CCCc3ccccc32)n1` [Compound 2.1, N1-{4-[(1R)-1,2,3,4-Tetrahydro-1-naphthylamino]-1,3,5-triazin-2-yl}acetamide] the “herbicidal action … in the pre-emergence method” value [1] was “very good herbicidal action” and the “herbicidal action … in the post-emergence method” value [2] was “very good herbicidal action”.
In the case of `CCC(=O)Nc1ncnc(N[C@@H]2CCCc3ccccc32)n1` [Compound 2.2], the “herbicidal action … in the pre-emergence method” value [1] is reported as “very good herbicidal action” and the “herbicidal action … in the post-emergence method” value [2] is reported as “very good herbicidal action”.
In the case of `CC(=O)Nc1ncnc(N[C@H]2c3cc(C)ccc3C[C@@H]2C)n1` [Compound 2.9], the “herbicidal action … in the pre-emergence method” value [1] is reported as “very good herbicidal action” and the “herbicidal action … in the post-emergence method” value [2] is reported as “very good herbicidal action”.
`Cc1ccc2c(c1)[C@H](Nc1ncnc(NC(=O)C(F)(F)F)n1)[C@@H](C)C2` [Compound 2.12, N-(4-{[(1R,2S)-2,6-Dimethyl-2,3-dihydro-1H-inden-1-yl]-amino}-1,3,5-triazin-2-yl)-2,2,2-trifluoroacetamide] was tested, and the “herbicidal action … in the pre-emergence method” value [1] was “very good herbicidal action” and the “herbicidal action … in the post-emergence method” value [2] was “very good herbicidal action”.
`CC(=O)Nc1nc(N[C@H]2c3cc(C)ccc3C[C@@H]2C)nc([C@@H](C)F)n1` [Compound 2.13] was tested, and the “herbicidal action … in the pre-emergence method” value [1] was “very good herbicidal action” and the “herbicidal action … in the post-emergence method” value [2] was “very good herbicidal action”.
In the case of `CCC(=O)Nc1nc(N[C@H]2c3cc(C)ccc3C[C@@H]2C)nc([C@@H](C)F)n1` [Compound 2.14], the “herbicidal action … in the pre-emergence method” value [1] is reported as “very good herbicidal action” and the “herbicidal action … in the post-emergence method” value [2] is reported as “very good herbicidal action”.
With `Cc1ccc2c(c1)[C@H](Nc1nc(NC(=O)C(F)(F)F)nc([C@@H](C)F)n1)[C@@H](C)C2` [Compound 2.26] the “herbicidal action … in the pre-emergence method” value [1] was “very good herbicidal action” and the “herbicidal action … in the post-emergence method” value [2] was “very good herbicidal action”.
In the case of `CC(=O)Nc1nc(N[C@@H]2CCCc3ccccc32)nc([C@@H](C)F)n1` [Compound 2.31], the “herbicidal action … in the pre-emergence method” value [1] is reported as “very good herbicidal action” and the “herbicidal action … in the post-emergence method” value [2] is reported as “very good herbicidal action”.
`C[C@@H](F)c1nc(NC(=O)C(F)(F)F)nc(N[C@@H]2CCCc3ccccc32)n1` [Compound 2.32] was tested, and the “herbicidal action … in the pre-emergence method” value [1] was “very good herbicidal action” and the “herbicidal action … in the post-emergence method” value [2] was “very good herbicidal action”.
`CC(=O)Nc1nc(C)nc(N[C@H]2c3cc(C)ccc3C[C@@H]2C)n1` [Compound 2.33] was tested, and the “herbicidal action … in the pre-emergence method” value [1] was “very good herbicidal action” and the “herbicidal action … in the post-emergence method” value [2] was “very good herbicidal action”.
With `C[C@@H](F)c1nc(NCCC#N)nc(N[C@@H]2CCCc3ccccc32)n1` [Compound 2.38, 3-({4-[(1R)-1-Fluoroethyl]-6-[(1R)-1,2,3,4-tetrahydronaphth-1-ylamino]-1,3,5-triazin-2-yl}amino)propanenitrile] the “herbicidal action … in the pre-emergence method” value [1] was “very good herbicidal action” and the “herbicidal action … in the post-emergence method” value [2] was “very good herbicidal action”.
With `C[C@@H](F)c1nc(N[C@@H]2CCCc3ccccc32)nc(N(CCC#N)CCC#N)n1` [Compound 2.39, 3,3′-({4-[(1R)-1-Fluoroethyl]-6-[(1R)-1,2,3,4-tetrahydronaphth-1-ylamino]-1,3,5-triazin-2-yl}imino)dipropanenitrile] the “herbicidal action … in the pre-emergence method” value [1] was “very good herbicidal action” and the “herbicidal action … in the post-emergence method” value [2] was “very good herbicidal action”.
For `Cc1ccc2c(c1)[C@H](Nc1ncnc(NC(=O)NC(C)(C)C)n1)[C@@H](C)C2` [Compound 2.43, N-(Tert-butyl)-N′-(4-{[(1R,2S)-2,6-dimethyl-2,3-dihydro-1H-inden-1-yl]amino}-1,3,5triazin-2-yl)urea], the “herbicidal action … in the pre-emergence method” value [1] was “very good herbicidal action” and the “herbicidal action … in the post-emergence method” value [2] was “very good herbicidal action”.
In the case of `Cc1ccc(NC(=O)Nc2nc(N[C@@H]3CCCc4ccccc43)nc([C@@H](C)F)n2)cc1` [Compound 2.59], the “herbicidal action … in the pre-emergence method” value [1] is reported as “very good herbicidal action” and the “herbicidal action … in the post-emergence method” value [2] is reported as “very good herbicidal action”.
`Cc1ccc(NC(=O)Nc2ncnc(NC3c4cc(C)ccc4CC3C)n2)cc1` (centres unmarked) [Compound 2.60] was tested, and the “herbicidal action … in the pre-emergence method” value [1] was “very good herbicidal action” and the “herbicidal action … in the post-emergence method” value [2] was “very good herbicidal action”.
In the case of `Cc1ccc2c(c1)C(Nc1nc(NC(=O)C3CC3)nc(C(C)F)n1)C(C)C2` (centres unmarked) [Compound 2.67], the “herbicidal action … in the pre-emergence method” value [1] is reported as “very good herbicidal action” and the “herbicidal action … in the post-emergence method” value [2] is reported as “very good herbicidal action”.
